Experimental findings from patent US5874461A, “Use of Nebivolol as an anti-atherogenic” (priority 1995, dated 1999) are described below.

For assay [1], the system named is primary embryonic hippocampal cultures. The assay is described as follows: VitE complementation (vitE depletion) test on primary neuronal cultures. It is filed as cell-based, rats. Conditions: for rescue of survival of vitE depleted cultures: 10^-7 M and 10^-6 M. As for the experimental part:
Primary embryonic hippocampal cultures were prepared essentially as described previously (Pauwels et al., Van Aschouw, H. P., Peeters, L., Moeremans, M., Leysen, J. E. (1992) Chronic treatment with sabeluzole protects cultured rat brain neurons from the neurotoxic effects of excitatory amino acids. Synapse, 12:271-280). Hippocampal formations of rats at embryonic day 17 were dissected and dissociated in 0.05% trypsin, 0.1 mg/ml DNase I in DMEM (Dulbecco Modified Eagle Medium). Heat-inactivated horse serum (HS) was added to a concentration of 4%, and the cells were centrifuged, washed with DMEM, and resuspended in DMEM/Ham's F12 (3:1) containing 10% HS. The cells were plated at a density of 4×10^5 cells/cm^2 in poly L-lysine (0.001%) precoated multiwell-24 plates. On day 1 in culture, the medium was changed to chemically defined CDM-R12 medium (DMEM-HEPES/Ham's F12 (3:1) containing 0.26% bovine serum albumin, 30 nM sodium selenite, 3 nM 3,3',5 triiodo-L-thyronine, 0.35 μM retinol, 0.3 μM retinol acetate, 2.3 μM DL-a-tocopherol, 2.1 μM DL-a-tocopherol acetate, 3.6 μM linolenic acid, 3.6 μM linoleic acid, 0.125% human transferrin, […], 57.7 nM corticosterone, 49 U/I insulin, 0.4 μM biotin, 10 μM L-carnitine, 83 μM D(+)-galactose, 3.3 μM glutathione, 10 μM ethanolamine, 0.1 mM putrescine; Romijn, H. J., van Huizen, F., Wolters, P. S. (1984) Towards an improved serum-free, chemically defined medium for long-term culturing of cerebral cortex tissue. Neurosci. Behav. Rev., 8:301-334). Acute and prolonged pretreatment of the, cultures was essentially as described previously (Pauwels et al., 1992). Drugs were dissolved, and diluted in 10% or 1% hydroxypropyl-β-cyclodextrin such that the final concentrations of the solvent in the acute and chronic exposures were 0.1% and 0.01% respectively. Compound A as used in the following examples is [(RRSR)+(RRRS)+(SSSR) +(SSRS)]-α-[[[2-(chroman-2-yl)-2-hydroxy-ethyl]amino]methyl]-6-hydroxy-2-chromanmethanol ethanedioate (1:1).
For vitE depletion experiments, primary cultures were set up as above, but on day 1 in culture, the medium was changed to chemically defined CDM-R12 medium with (control) or without DL-a-tocopherol (vitE) and DL-a-tocopherol acetate, in the presence or absence of test coumpound. […] Addition of compounds could rescue the cultures. […] The EC50 for complementation of vitE refers to the concentration of the compound required to restore culture survival to 50% of the survival seen for the culture grown in vitE supplemented medium. Seven concentrations of each compound were tested in triplicate, the number of independent experiments is indicated in the table, and the mean EC50 -value±SD was calculated.
Primary neuronal cultures depend on the presence of the antioxidant vitE in the culture medium for survival in vitro. When vitE depleted medium is used to grow the cultures, survival drops to ±20% of control. Compounds with antioxidative properties are able to complement the lack of vitE, and as such can when added to the culture medium, rescue vitE devoid cultures. Several nebivolol derivatives were tested at 10^-7 M and 10^-6 M in the vitE depletion test on primary neuronal cultures.
When nebivolol derivatives were administered during culture, the cultures could be rescued to a certain extent. 100% vitE complementation refers to the survival of a cell culture which is indifferent from a vitE containing cell culture.
When hydroxynebivolol was administered during culture, the cultures could be rescued. The EC50 refers to the concentration at which the culture is rescued for 50%, as measured by cytoplasmic LDH activity.

Assay [2] has as its system C6 glioma cells. The assay is described as follows: Fluorescence measurement of intracellular peroxides in C6 glioma cells after glutamate. The format is cell-based. Conditions: for glutamate-mediated increase in peroxidation: 10 mM glutamate; for Intracellular peroxides (mean ± SD, n): glutamate 10 mM, without or with compound 1 μM. The text has this:
Competitive inhibition by glutamate of cystine uptake in certain cells leads to glutathione depletion and oxidative stress. This oxidative stress model has been described for glial C6 glioma cells (Kato et al., 1992. A mechanism for glutamate toxicity in the C6 glioma cells involving inhibition of cystine uptake leading to glutathione depletion. Neurosci. 48:903-914) and for the neuronal cell line N18RE105 (Murphy et al., 1989. Glutamate toxicity in a neuronal cell line involves inhibition of cystine transport leading to oxidative stress. Neuron 2:1547-1558).
Cell culture: The C6 glioma cell line (American Type Culture Collection, CCL 107) was cultivated in DMEM supplemented with 2 or 4 mM glutamine, 1 mM pyruvate and 5 or 10% heat-inactivated foetal calf serum. Cultures were maintained at 37° C. in an air/5~10% CO2, water saturated atmosphere.
Glutathione depletion and evaluation of drugs as antioxidants: Experiments were carried out with cultures plated at 30,000~50,000 cells/cm^2 in 24-well culture plates (for toxicity and lipid peroxide measurements) or at 136,000 cells/cm^2 in 96-well culture plates (for GSH determination). After 8-24 hr, the cultures were switched to culture medium in the absence or presence of the cystine uptake inhibitor glutamate at a final concentration of 10 mM. In order to test drugs for inhibition of oxidative stress, the drug was added together with glutamate (final concentration of solvent was 0.01% hydroxypropyl-β-cylodextrin, 0.1% DMSO). Intracellular glutathione levels were measured after 6~8 hr, lipid peroxides were measured after 14~20 hr, and toxicity and protection were analysed after 48 hr using an LDH assay according to the method of Bergmeyer and Bernt (UV-assay with pyruvate and NADH. In: Methods of Enzymatic Analysis. 1974. H. U. Bergmeyer, ed. Acad. Press, New York, 2nd Ed., pp 574-579).
Fluorescence measurement of intracellular peroxides: Formation of intracellular peroxides was detected using 6-carboxy-2',7'-dichlorodihydrofluorescin diacetate, di(acetoxymethyl ester) (C-DCDHF, Molecular Probes). C-DCDHF was dissolved in DMSO at a concentration of 10 mM and stored at -70° C. under nitrogen. After exposure of the culture to the glutathione depleting agents, the cells were loaded with 10 μM C-DCDHF for one hour at 37° C. Medium was aspirated off, PBS was added to the cells, and plates were read in a Cytofluor II microplate reader (PerSeptive Biosystems). Excitation and emission wavelength were selected with a 485/530 nm filter pair. The results were expressed in relative fluorescence units/μg protein.

For the compound `O[C@H](CNC[C@@H](O)[C@H]1CCc2cc(F)ccc2O1)[C@@H]1CCc2cc(F)ccc2O1` (relative stereo) [nebivolol, (RSSS) and (SRRR) α,α'-iminobis(methylene)bis[6-fluoro-2-chroman-methanol]], the “% vitE complementation” value in assay [1] (10^-6 M) was 29 ± 28%. Besides, the “% vitE complementation” value in assay [1] (10^-7 M) is listed as 29 ± 29%. In addition, the “rescue of survival of vitE depleted cultures” value in assay [1] was “able to rescue survival of vitE depleted cultures to a certain extent”. Also, in assay [2], the “glutamate-mediated increase in peroxidation” value was “inhibited the glutamate-mediated increase in peroxidation” and the “Intracellular peroxides (mean ± SD, n)” value was 155 ± 13 Relative fluorescence units/μg.
For orientation: EC50 means the concentration that produces a half-maximal response. Take `Oc1ccc2c(c1)CCC(C(O)CNCC(O)C1CCc3ccccc3O1)O2` (stereo not drawn) [Compound A, [(RRSR)+(RRRS)+(SSSR) +(SSRS)]-α-[[[2-(chroman-2-yl)-2-hydroxy-ethyl]amino]methyl]-6-hydroxy-2-chromanmethanol ethanedioate (1:1)]: in assay [1] (10^-6 M), the “% vitE complementation” value is given as 85 ± 21% and the “rescue of primary neuronal cultures grown in VitE depleted medium” value is given as “complete rescue”. Moreover, in assay [1] (10^-7 M), the “% vitE complementation” value was 27 ± 28%. Also, in assay [1], the “rescue of survival of vitE depleted cultures” value is listed as “able to rescue survival of vitE depleted cultures to a certain extent”. Also, the EC50 in assay [1] (Rattus norvegicus, 5 dose responses, cytoplasmic LDH activity, read-out: mean EC50 ± SD for complementation of vitE) was 126 ± 88 nM. Further, in assay [2], the “glutamate-mediated increase in peroxidation” value is recorded as “inhibited the glutamate-mediated increase in peroxidation” and the “Intracellular peroxides (mean ± SD, n)” value was 137 ± 8 Relative fluorescence units/μg.
